Results reported in PubChem BioAssay (NCI).
“And” between values parts separate entries of the source, which are not always exact repeats. Equal entries are not always repeated.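 Test compounds were applied to cells in 96-well plates for 48 hours at 5 doses. At the GI50, growth is halved. TGI: concentration producing complete growth inhibition.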

Experiments:
Experiment in all cases: NCI-60 cell line screen, 48 h
T-47D breast = test system: T-47D breast
RPMI-8226 leukemia = test system: RPMI-8226 leukemia
M14 melanoma = test system: M14 melanoma
SF-268 CNS = test system: SF-268 CNS
UACC-257 melanoma = test system: UACC-257 melanoma
CCRF-CEM leukemia = test system: CCRF-CEM leukemia
SK-OV-3 ovarian = test system: SK-OV-3 ovarian
SK-MEL-5 melanoma = test system: SK-MEL-5 melanoma
RXF 393 renal = test system: RXF 393 renal
NCI-H460 lung = test system: NCI-H460 lung

Compound	TGI (T-47D breast)	TGI (RPMI-8226 leukemia)	TGI (M14 melanoma)	TGI (SF-268 CNS)	TGI (UACC-257 melanoma)	TGI (CCRF-CEM leukemia)	TGI (SK-OV-3 ovarian)	TGI (SK-MEL-5 melanoma)	TGI (RXF 393 renal)	TGI (NCI-H460 lung)	GI50 (T-47D breast) [µM]	GI50 (RPMI-8226 leukemia)	GI50 (M14 melanoma)	GI50 (SF-268 CNS)	GI50 (UACC-257 melanoma)	GI50 (CCRF-CEM leukemia)	GI50 (SK-OV-3 ovarian)	GI50 (SK-MEL-5 melanoma)	GI50 (RXF 393 renal)	GI50 (NCI-H460 lung)
OC1(c2ccccc2)C2CC=CC2C1(c1ccccc1)c1ccccc1 (centres undefined)	> 100 µM	86.5 µM	> 100 µM	> 100 µM	81.4 µM	> 100 µM	> 100 µM	36.2 µM	46.3 µM	> 100 µM										
C=C(C)[C@@H]1CCC=C2CC[C@]3(C)[C@H](CC[C@@H]4[C@@]5(C)CCCNC(C)(C)[C@@H]5CC[C@]43C)[C@H]21	4.83 µM	5.15 µM	3.34 µM	8.53 µM	9.32 µM	7.21 µM	27.3 µM	14 µM	3.13 µM	3.73 µM	1.77	2.14 µM	1.73 µM	2.77 µM	3.34 µM	2.48 µM	12.1 µM	3.58 µM	1.63 µM	1.93 µM
CCCCNNC(=O)c1ccc(Br)cc1	7.49 µM	> 50 µM	> 50 µM	> 50 µM	7.34 µM	> 50 µM	> 50 µM	7.77 µM	30.4 µM	> 50 µM	1.11	0.956 µM	2.46 µM	8.41 µM	0.639 µM	2.46 µM	8.54 µM	1.94 µM	4.53 µM	2.97 µM
CCC(=O)N1C/C(=C/c2ccc(Cl)cc2)C(=O)/C(=C/c2ccc(Cl)cc2)C1	3.27 µM	0.911 µM	2.6 µM	3.16 µM	3.24 µM	> 22.3 µM	3.76 µM	2.81 µM	2.08 µM	3.56 µM	1.38	0.101 µM	0.992 µM	1.17 µM	1.64 µM	0.422 µM	1.83 µM	1.46 µM	0.723 µM	1.12 µM
C=CO/N=[N+](\[O-])N(CC)CC	> 100 µM	> 100 µM	> 100 µM	> 100 µM	> 100 µM	> 100 µM	> 100 µM	> 100 µM	> 100 µM	> 100 µM										
C=C1C(=O)O[C@H]2[C@H]1CC/C(COC(=O)CCCCCC(=O)OC/C1=C/CC[C@@]3(C)O[C@H]3[C@H]3OC(=O)C(=C)[C@@H]3CC1)=C\CC[C@@]1(C)O[C@@H]21	5.74 µM	5.51 µM	8.29 µM	14.8 µM	5.63 µM	3.86 µM	31 µM	4.37 µM	2.41 µM	12.2 µM	1.96	1.69 µM	2.68 µM	3.44 µM	1.93 µM	0.393 µM	12 µM	1.91 µM	1.1 µM	3.21 µM
Nc1ccn(C2CC(F)C(CO)O2)c(=O)n1 (centres undefined)	> 100 µM	> 100 µM	> 100 µM	> 100 µM	> 100 µM	> 100 µM	> 100 µM	> 100 µM	> 100 µM	> 100 µM	> 100	> 100 µM	> 100 µM	> 100 µM	> 100 µM	> 100 µM	> 100 µM	> 100 µM	> 100 µM	> 100 µM
C#C[C@]1(O)CC[C@H]2[C@@H]3CC=C4c5sc(Nc6cc(F)ccc6F)nc5CC[C@]4(C)[C@H]3CC[C@@]21C	7.69 µM	0.934 µM	2.77 µM	3.37 µM	4.31 µM	4.81 µM	10.2 µM	3.16 µM	0.728 µM	4.14 µM	2.49	0.196 µM	1.28 µM	1.53 µM	1.83 µM	0.669 µM	2.78 µM	1.74 µM	0.213 µM	1.95 µM
Cn1cnc(N)c(N=O)c1=O	> 10 µM	> 10 µM	> 10 µM	> 10 µM	> 10 µM	> 10 µM	> 10 µM	> 10 µM	> 10 µM	> 10 µM										
CO/N=C(\COc1ccc2c(=O)c3ccccc3oc2c1)c1ccccc1	> 100 µM	> 100 µM	> 100 µM	> 100 µM	> 100 µM	> 100 µM	77 µM	> 100 µM	> 100 µM	> 100 µM	> 100	> 100 µM	73.5 µM	33.2 µM	39.1 µM	> 100 µM	29.7 µM	38.1 µM	39 µM	38.9 µM
C=CC(=O)N1CCC(c2ccc(C(N)=O)c(-c3ccc(Oc4ccccc4)cc3)n2)CC1	95.7 µM	73.7 µM	> 100 µM	> 100 µM	> 100 µM	> 100 µM	> 100 µM	41.9 µM	53.6 µM	> 100 µM	16.1	20.4 µM	34.3 µM	50.5 µM	27.9 µM	33.9 µM	23.4 µM	20.6 µM	12.5 µM	46.2 µM
CCOC(=O)N1C/C(=C\c2ccccc2)C(=O)/C(=C/c2ccccc2)C1	> 31.6 µM	1.77 µM	6.69 µM	11.9 µM	12.5 µM	5.79 µM	27.8 µM	6.2 µM	10.3 µM	42.4 µM										
O=C(NCCN1CCOCC1)OCc1nc2nc(Cl)nc(N3CCOCC3)c2[nH]1	> 100 µM	> 100 µM		> 100 µM	> 100 µM	> 100 µM	> 100 µM	4.72 µM	6.78 µM	> 100 µM	> 100	0.701 µM		3.02 µM	> 100 µM	2.9 µM	5.28 µM	2.1 µM	1.87 µM	3.29 µM
COc1ccc(C(=O)Cn2c(C(=O)c3ccccc3)nc3ccccc32)cc1	> 100 µM	> 28.8 µM	> 100 µM	> 100 µM	> 100 µM	> 58.1 µM	> 100 µM	6.06 µM	> 22.2 µM	> 100 µM	3.87	3.05 µM	2.93 µM	4.18 µM	> 100 µM	2.87 µM	6.58 µM	2.06 µM	2.38 µM	3.39 µM
O=[N+]([O-])/C=C/c1c(Cl)cccc1Cl	9.39 µM	0.514 µM	4.87 µM	28.2 µM	10.2 µM	> 18.2 µM	35.5 µM	8.78 µM	> 21.8 µM	21 µM										
c1ccc(-c2nn3c(c2-c2ccnc4cc(OCCN5CCOCC5)ccc24)CCC3)nc1	> 100 µM	> 100 µM	> 100 µM	> 100 µM	> 100 µM	> 100 µM	> 100 µM	> 100 µM	> 100 µM	> 100 µM	> 100	53.7 µM	70.8 µM	> 77.1 µM	> 100 µM	> 95.9 µM	> 100 µM	43.9 µM	> 100 µM	33.6 µM
O=C1CCc2c(sc3[nH]c(=S)n(-c4cc(C(F)(F)F)cc(C(F)(F)F)c4)c(=O)c23)C1	2.46 µM	3.03 µM	11.9 µM	> 45.4 µM	4.6 µM	5.81 µM	5.54 µM	0.465 µM	5.16 µM	2.03 µM	0.385	0.411 µM	0.463 µM	0.469 µM	0.725 µM	0.349 µM	0.947 µM	0.217 µM	0.392 µM	0.353 µM
COc1cc(-c2nc3ccccc3s2)ccc1OCCCCOc1cc2c(cc1OC)C(=O)N1CCC[C@H]1C=N2	2.03 µM	1.44 µM	2.92 µM	4.65 µM	5.78 µM	2.1 µM	5.44 µM	2.01 µM	0.698 µM	3.4 µM	0.407	0.328 µM	1.38 µM	1.28 µM	2.49 µM	0.102 µM	2.66 µM	0.724 µM	0.24 µM	1 µM
O=C1NC(N/N=C\C(O)C(O)C(O)C(O)CO)=N/C1=C/c1ccccc1 (centres undefined)	> 100 µM and 26.7 µM	> 100 µM and 45.2 µM	> 100 µM and 31.6 µM	> 100 µM and 42.7 µM	> 100 µM and 45 µM	> 100 µM and 97.7 µM and > 57.7 µM	> 100 µM and 37.8 µM	> 100 µM and 29.2 µM	> 100 µM and 44 µM	> 100 µM and 25.6 µM		58.8 µM and 19.6 µM and > 100 µM	52.6 µM and 15.4 µM and > 100 µM	> 100 µM and 15.2 µM	> 100 µM and 19.9 µM	37.1 µM and 10.2 µM and 37.7 µM	> 100 µM and 20.2 µM	44.5 µM and 14.8 µM and > 100 µM	> 100 µM and 21.7 µM	75.8 µM and 11.8 µM and > 100 µM
O=[N+]([O-])c1cc[n+]([O-])c2ccccc12	4.25 µM	0.358 µM	0.521 µM	1.24 µM	0.77 µM	5.27 µM	5.55 µM	0.437 µM	0.619 µM	0.162 µM	0.321	0.0439 µM	0.182 µM	0.282 µM	0.229 µM	1.55 µM	1.78 µM	0.184 µM	0.211 µM	0.033 µM
C1=C(c2ccccc2)C(N2CCOCC2)Oc2ccccc21 (centres undefined)	> 100 µM	> 100 µM	> 100 µM	> 100 µM	> 100 µM	> 100 µM	> 100 µM	> 100 µM	> 100 µM	> 100 µM										
O=c1c2c([nH]c3nccn13)CCC2	> 10 µM	> 10 µM	> 10 µM	> 10 µM	> 10 µM	> 10 µM	> 10 µM	> 10 µM	> 10 µM	> 10 µM										
CCOc1ccc2c(-c3ccnc(Nc4cc(OC)cc(C(F)(F)F)c4)n3)cnn2n1	> 25 µM	> 25 µM	> 25 µM	> 25 µM	> 25 µM	> 25 µM	> 25 µM	> 25 µM	> 23.6 µM	> 25 µM	1.26	> 18.3 µM	> 25 µM	> 18.9 µM	> 25 µM	> 25 µM	> 25 µM	> 14.8 µM	10.8 µM	> 15.7 µM
OCCCCC#Cc1ccccc1C#Cc1ccc(O)cc1	45.2 µM	48.9 µM	36 µM	41.7 µM	33.9 µM	26.1 µM	40.2 µM	32.2 µM	22.4 µM	48.6 µM	19.7	19.1 µM	17.8 µM	16 µM	18.5 µM	7.35 µM	20 µM	17.7 µM	0.622 µM	20.6 µM
Fc1ccc(-c2ncn(C3CCNCC3)c2-c2ccnc(Oc3ccc4c(c3)OCO4)n2)cc1	> 25 µM	> 25 µM	> 25 µM	> 25 µM	> 25 µM	> 25 µM	> 25 µM	8.4 µM	> 25 µM	> 25 µM	12.7	> 25 µM	10.4 µM	24.4 µM	10.5 µM	> 25 µM	14.9 µM	3.77 µM	7.88 µM	> 21.7 µM
COC(=O)c1c2c(c(C)[n+]([O-])c1C)C(=O)C=C(NCc1ccccc1)C2=O	1.59 µM	4.28 µM	1.87 µM	4.47 µM	0.962 µM	3.71 µM	4.18 µM	0.48 µM	2.73 µM	2.73 µM	0.316	1.36 µM	0.55 µM	1.51 µM	0.261 µM	0.668 µM	2.03 µM	0.206 µM	1.23 µM	0.872 µM
C/C(=C\c1ccn(-c2ccccc2N)n1)[C@@H]1C[C@@H]2O[C@]2(C)CCC[C@H](C)[C@H](O)[C@@H](C)C(=O)C(C)(C)[C@@H](O)CC(=O)O1	> 50 µM	> 24.1 µM		> 50 µM	> 50 µM	> 50 µM	> 50 µM	> 50 µM	0.604 µM	> 50 µM	0.0692	0.0188 µM		0.111 µM		0.0343 µM	0.081 µM	0.0286 µM	0.0526 µM	0.0201 µM
